The structures appear in SMILES notation.

The target in this experiment is T1, cytoplasmic kinase domain of human IGF-1R (IGF-1R-GST) (Homo sapiens, UniProt P08069).
T1 construct: cytoplasmic kinase domain of human IGF-1R (amino acids 964-1370); GST (glutathione-S-transferase); made in house; host or cells: High Five insect cells (Invitrogen)
T1 sequence (P08069 964-1367 limits assumed): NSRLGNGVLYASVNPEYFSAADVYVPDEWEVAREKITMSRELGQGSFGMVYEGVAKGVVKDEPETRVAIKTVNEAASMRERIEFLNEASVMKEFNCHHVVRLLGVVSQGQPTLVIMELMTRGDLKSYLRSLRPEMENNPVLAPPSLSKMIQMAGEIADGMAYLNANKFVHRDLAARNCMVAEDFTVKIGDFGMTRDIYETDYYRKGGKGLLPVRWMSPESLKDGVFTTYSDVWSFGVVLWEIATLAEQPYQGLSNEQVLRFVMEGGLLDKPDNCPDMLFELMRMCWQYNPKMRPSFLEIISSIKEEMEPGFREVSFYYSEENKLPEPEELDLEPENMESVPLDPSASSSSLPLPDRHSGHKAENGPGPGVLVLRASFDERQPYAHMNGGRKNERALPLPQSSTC
The experiment can be described thus: Insulin-like growth factor-1 receptor (IGF-1R) kinase assay (DELFIA). The format is biochemical. The note with it: IGF-1R-GST kinase activity, read-out: IGF1R IC50. The protocol: Insulin-Like Growth Factor-1 Receptor (IGF-1R)-Kinase Assay
The kinase activity is measured by DELFIA® assay (dissociation-enhanced lanthanide fluorescence immunoassay, Perkin Elmer). […] Enzyme activity is measured in the presence of substances and a control substance. Poly-glutamate-tyrosine peptide (pEY, Sigma Aldrich) and biotinylated pEY (bio-pEY) are used as reaction substrates.
After 40 min at RT the reactions are stopped with 50 μL of stop solution (250 mM EDTA, 20 mM HEPES pH 7.4). 90 μL from each reaction are transferred onto streptavidin-coated 96-well plates. After 120 min incubation at RT the plates are washed three times with 200 μL phosphate-buffered saline (PBS) per well. The plates are incubated for 60 min with 100 μL of europium-coupled antibody against phospho-tyrosine (diluted 1/2000 in Perkin Elmer DELFIA assay buffer) per well. The plates are washed three times with 200 μL per well of DELFIA washing buffer. 100 μL DELFIA Enhancement Solution (Perkin Elmer) is added to each well, and the plates are incubated for 10 min. The fluorescence signal is measured with a Wallac Victor TRF Reader. IC50 values for the inhibition of the IGF-1R-kinase activity are calculated using the programmes Fifty (Version 2) and GraphPad (Version 3.0).
Usually IC50 stands for the concentration needed to halve the response being measured. Consider `COc1cc(N2CCN(C(=O)C3CCN(C)CC3)CC2)ccc1Nc1ncc(C(F)(F)F)c(NCc2cccc3c2C(C)(C)C(=O)N3)n1` [Example I-87], for which the IC50 amounted to 3 nM.

Regarding `COc1cc(N2CCN(C(=O)CN3CCN(C)CC3)CC2)ccc1Nc1ncc(C(F)(F)F)c(NCc2cccc3c2C(C)(C)C(=O)N3)n1` [Example I-88], the IC50 is 9 nM.

As to `COc1cc(N2CCN(C(=O)CCN(C)C)CC2)ccc1Nc1ncc(C(F)(F)F)c(NCc2cccc3c2C(C)(C)C(=O)N3)n1` [Example I-89], the IC50 turned out to be 0.18 nM.

Regarding `COc1cc(N2CCN(C(=O)C3CCCN(C)C3)CC2)ccc1Nc1ncc(C(F)(F)F)c(NCc2cccc3c2C(C)(C)C(=O)N3)n1` (centres unmarked) [Example I-90], the IC50 was 0.32 nM.

For `COc1cc(N2CCN(C(=O)CN(C)C)CC2)ccc1Nc1ncc(C(F)(F)F)c(NCc2cccc3c2CC(=O)N3)n1` [Example I-91], the IC50 stood at 6 nM.

Take `COc1cc(N2CCN(C(=O)CCCN(C)C)CC2)ccc1Nc1ncc(C(F)(F)F)c(NCc2cccc3c2CC(=O)N3)n1` [Example I-92]: the concentration for half-maximal inhibition (IC50) was found to be 9 nM.

Consider `CC1(C)C(=O)Nc2cccc(CNc3nc(Nc4ccc(C5CCN(C6COC6)CC5)cc4)ncc3Cl)c21` [Example I-93], for which the IC50 turned out to be 5 nM.

Take `CN1CCN(c2ccc(Nc3ncc(Cl)c(NCc4cccc5c4C(C)(C)C(=O)N5)n3)cc2)CC1` [Example I-94]: the IC50 was 14 nM.

On to `COc1cc(N2CCN(C3CCOCC3)CC2)ccc1Nc1ncc(Cl)c(NCc2cccc3c2C(C)(C)C(=O)N3)n1` [Example I-95], for which the IC50 was found to be 16 nM.

Consider `COc1cc(N2CCN(C3CCC3)CC2)ccc1Nc1ncc(Cl)c(NCc2cccc3c2C(C)(C)C(=O)N3)n1` [Example I-96], for which the IC50 was 3 nM.

Consider `COc1cc(N2CCN(C(C)C)CC2)ccc1Nc1ncc(Cl)c(NCc2cccc3c2C(C)(C)C(=O)N3)n1` [Example I-98], for which the IC50 came out at 2 nM.

Regarding `CCN1CCN(c2ccc(Nc3ncc(Cl)c(NCc4cccc5c4C(C)(C)C(=O)N5)n3)c(OC)c2)CC1` [Example I-99], the IC50 turned out to be 2 nM.

As to `COc1cc(C2CCN(C)CC2)ccc1Nc1ncc(Cl)c(NCc2cccc3c2C(C)(C)C(=O)N3)n1` [Example I-100], the IC50 came out at 2 nM.

Take `COc1cc(N2CCN(CC3CC3)CC2)ccc1Nc1ncc(Cl)c(NCc2cccc3c2C(C)(C)C(=O)N3)n1` [Example I-101]: the IC50 amounted to 2 nM.

For the molecule `COc1cc(N2CCN(C3CCOCC3)[C@H](C)C2)ccc1Nc1ncc(C(F)(F)F)c(NCc2cccc3c2C(C)(C)C(=O)N3)n1` [Example I-105], the IC50 turned out to be 2 nM.

In the case of `COc1cc(N2CCN(C(C)C)[C@H](C)C2)ccc1Nc1ncc(C(F)(F)F)c(NCc2cccc3c2C(C)(C)C(=O)N3)n1` [Example I-106], the IC50 is 0.08 nM.

In the case of `CCN1CCN(c2ccc(Nc3ncc(C(F)(F)F)c(NCc4cccc5c4C(C)(C)C(=O)N5)n3)c(OC)c2)C[C@H]1C` [Example I-107], the IC50 worked out at 0.62 nM.

For `COc1cc(N2CCN(C)[C@H](C)C2)ccc1Nc1ncc(C(F)(F)F)c(NCc2cccc3c2C(C)(C)C(=O)N3)n1` [Example I-108], the IC50 was 0.93 nM.

With `COc1cc(N2CCN(C3CCC3)[C@H](C)C2)ccc1Nc1ncc(C(F)(F)F)c(NCc2cccc3c2C(C)(C)C(=O)N3)n1` [Example I-109], the IC50 was 0.87 nM.

`COc1cc(N2CCN(C3CCN(C(C)=O)CC3)CC2)ccc1Nc1ncc(C(F)(F)F)c(NCc2cccc3c2CC(=O)N3)n1` [Example I-110]: the IC50 was determined as 8 nM.

Turning to `COc1cc(N2CCN(C3CCN(C(C)C)CC3)CC2)ccc1Nc1ncc(C(F)(F)F)c(NCc2cccc3c2CC(=O)N3)n1` [Example I-111], the IC50 is 18 nM.

For the molecule `COc1cc(N2CCN(C3CCN(C4CC4)CC3)CC2)ccc1Nc1ncc(C(F)(F)F)c(NCc2cccc3c2CC(=O)N3)n1` [Example I-112], the IC50 was determined as 5 nM.

On to `COc1cc(N2CCN(C3CCN(CC#N)CC3)CC2)ccc1Nc1ncc(C(F)(F)F)c(NCc2cccc3c2CC(=O)N3)n1` [Example I-113], for which the IC50 worked out at 3 nM.

In the case of `CCN1CCC(N2CCN(c3ccc(Nc4ncc(C(F)(F)F)c(NCc5cccc6c5CC(=O)N6)n4)c(OC)c3)CC2)CC1` [Example I-114], the IC50 stood at 4 nM.

`COc1cc(N2CCN(C3CCN(C4CCOCC4)CC3)CC2)ccc1Nc1ncc(C(F)(F)F)c(NCc2cccc3c2CC(=O)N3)n1` [Example I-115]: the 50% inhibitory concentration (IC50) is 10 nM.

Turning to `COc1cc(N2CCN(C(C)C)CC2)ccc1Nc1ncc(C(F)(F)F)c(NCc2cccc3c2CC(=O)N3)n1` [Example I-116], the IC50 was 10 nM.

In the case of `COc1cc(N2CCN(C3CCN(C)CC3)CC2)ccc1Nc1ncc(C(F)(F)F)c(NCc2cccc3c2CC(=O)N3)n1` [Example I-117], the IC50 stood at 9 nM.

Turning to `COc1cc(N2CCN(C3CCOCC3)CC2)ccc1Nc1ncc(C(F)(F)F)c(NCc2cccc3c2CC(=O)N3)n1` [Example I-118], the IC50 came to 11 nM.

For the molecule `COc1cc(N2CCN(C)CC2)ccc1Nc1ncc(C(F)(F)F)c(NCc2cccc3c2CC(=O)N3)n1` [Example I-119], the IC50 is 11 nM.

Regarding `COc1cc(N2CCN(Cc3ccncc3)CC2)ccc1Nc1ncc(C(F)(F)F)c(NCc2cccc3c2CC(=O)N3)n1` [Example I-120], the IC50 was found to be 49 nM.

Consider `COc1cc(N2CCN(C3CCN(CCO)CC3)CC2)ccc1Nc1ncc(C(F)(F)F)c(NCc2cccc3c2CC(=O)N3)n1` [Example I-121], for which the IC50 came to 16 nM.

Take `COCCN1CCC(N2CCN(c3ccc(Nc4ncc(C(F)(F)F)c(NCc5cccc6c5CC(=O)N6)n4)c(OC)c3)CC2)CC1` [Example I-122]: the IC50 came out at 15 nM.

As to `COc1cc(N2CCN(C3CCN(C(=O)N(C)C)CC3)CC2)ccc1Nc1ncc(C(F)(F)F)c(NCc2cccc3c2CC(=O)N3)n1` [Example I-123], the IC50 stood at 12 nM.

With `COc1cc(N2CCN(C3CCN(S(=O)(=O)N(C)C)CC3)CC2)ccc1Nc1ncc(C(F)(F)F)c(NCc2cccc3c2CC(=O)N3)n1` [Example I-124], the IC50 was found to be 12 nM.

`COc1cc(N2CCN(C3CCN(S(C)(=O)=O)CC3)CC2)ccc1Nc1ncc(C(F)(F)F)c(NCc2cccc3c2CC(=O)N3)n1` [Example I-125]: the IC50 is 15 nM.

Take `COc1cc(N2CCN(C3CCOCC3)CC2)ccc1Nc1ncc(C(F)(F)F)c(NCc2cccc3c2C(C)(C)C(=O)N3C)n1` [Example I-126]: the IC50 worked out at 3 nM.

As for `COc1cc(N2CCN(C)CC2)ccc1Nc1ncc(C(F)(F)F)c(NCc2cccc3c2C(C)(C)C(=O)N3C)n1` [Example I-127], the IC50 turned out to be 3 nM.

As for `COc1cc(N2CCN(C(C)C)CC2)ccc1Nc1ncc(C(F)(F)F)c(NCc2cccc3c2C(C)(C)C(=O)N3C)n1` [Example I-128], the IC50 was determined as 2 nM.

Consider `CCN1CCN(c2ccc(Nc3ncc(C(F)(F)F)c(NCc4cccc5c4C(C)(C)C(=O)N5C)n3)c(OC)c2)CC1` [Example I-129], for which the IC50 came to 2 nM.

`COc1cc(N2CCN(C3CCN(C)CC3)CC2)ccc1Nc1ncc(C(F)(F)F)c(NCc2cccc3c2C(C)(C)C(=O)N3C)n1` [Example I-130]: the IC50 was determined as 2 nM.

As to `COc1cc(N2CCN(CC3CC3)[C@H](C)C2)ccc1Nc1ncc(C(F)(F)F)c(NCc2cccc3c2C(C)(C)C(=O)N3)n1` [Example I-131], the IC50 worked out at 0.33 nM.

`COc1cc(N2CCN(C3CCN(C)CC3)[C@H](C)C2)ccc1Nc1ncc(C(F)(F)F)c(NCc2cccc3c2C(C)(C)C(=O)N3)n1` [Example I-132]: the IC50 was determined as 0.6 nM.

As to `CN1CCN(c2ccc(Nc3ncc(C(F)(F)F)c(NCc4cccc5c4C(C)(C)C(=O)N5)n3)cn2)CC1` [Example I-133], the IC50 amounted to 13 nM.

For `CC(C)N1CCC(c2ccc(Nc3ncc(C(F)(F)F)c(NCc4cccc5c4C(C)(C)C(=O)N5)n3)cc2)CC1` [Example I-134], the IC50 amounted to 1 nM.

Turning to `COc1cc(N2CCN(C3CCN(C)CC3)CC2)ccc1Nc1ncc(C(F)(F)F)c(NCc2cccc3c2C(C)(C)C(=O)N3)n1` [Example I-135], the IC50 was 0.57 nM.

Take `COc1cc(N2CCN(C(C)C)CC2)ccc1Nc1ncc(C(F)(F)F)c(NCc2cccc3c2C(C)(C)C(=O)N3)n1` [Example I-136]: the IC50 is 2 nM.

`CCc1cc(Nc2ncc(C(F)(F)F)c(NCc3cccc4c3CC(=O)N4)n2)c(OC)cc1N1CCN(C(C)C)CC1` [Example I-137]: the IC50 came out at 65 nM.

On to `CCOc1cc(N2CCN(C)CC2)ccc1Nc1ncc(C(F)(F)F)c(NCc2cccc3c2CC(=O)N3)n1` [Example I-138], for which the IC50 is 13 nM.

Take `CCOc1cc(N2CCN(C(C)C)CC2)ccc1Nc1ncc(C(F)(F)F)c(NCc2cccc3c2CC(=O)N3)n1` [Example I-139]: the IC50 worked out at 8 nM.

As to `CCOc1cc(N2CCN(CC)CC2)ccc1Nc1ncc(C(F)(F)F)c(NCc2cccc3c2CC(=O)N3)n1` [Example I-140], the IC50 amounted to 11 nM.

For the molecule `CCOc1cc(N2CCN(C3COC3)CC2)ccc1Nc1ncc(C(F)(F)F)c(NCc2cccc3c2CC(=O)N3)n1` [Example I-141], the IC50 was found to be 19 nM.

Regarding `CCOc1cc(N2CCN(C)CC2)ccc1Nc1ncc(C(F)(F)F)c(NCc2cccc3c2C(C)(C)C(=O)N3)n1` [Example I-142], the IC50 is 0.55 nM.

As to `CCOc1cc(N2CCN(C(C)C)CC2)ccc1Nc1ncc(C(F)(F)F)c(NCc2cccc3c2C(C)(C)C(=O)N3)n1` [Example I-143], the IC50 worked out at 1 nM.

The record behind these values is US8546443B2, “Benzylic oxindole pyrimidines” (Boehringer Ingelheim International GmbH, priority 2010, dated 2013).
